Measured values taken from PMC3961306, “Comparison of the Cancer Gene Targeting and Biochemical Selectivities of All Targeted Kinase Inhibitors Approved for Clinical Use” (PLoS ONE, 2014).
pIC50: −log10 of the molar value. Read-outs that look alike come from different tables or passages of the source.

How the values were obtained:
[1] = target: panel of more than 300 wild-type and mutant kinases (313 kinase panel) (Homo sapiens, UniProt Q8TDX7); assay: Kinase profiling in a biochemical assay panel (mobility shift assays and ELISA), %-inhibition at 1 μM; selectivity entropy
[2] = target: panel of more than 300 wild-type and mutant kinases (313 kinase panel) (Homo sapiens, UniProt P09619); assay: as above; settings: kinase PDGFRβ; 1 μM
[3] = target: T1, panel of more than 300 wild-type and mutant kinases (313 kinase panel) (Homo sapiens, UniProt Q16832); assay: as above; settings: kinase DDR2; compound at 1 μM
T1 sequence (Q16832 22-855): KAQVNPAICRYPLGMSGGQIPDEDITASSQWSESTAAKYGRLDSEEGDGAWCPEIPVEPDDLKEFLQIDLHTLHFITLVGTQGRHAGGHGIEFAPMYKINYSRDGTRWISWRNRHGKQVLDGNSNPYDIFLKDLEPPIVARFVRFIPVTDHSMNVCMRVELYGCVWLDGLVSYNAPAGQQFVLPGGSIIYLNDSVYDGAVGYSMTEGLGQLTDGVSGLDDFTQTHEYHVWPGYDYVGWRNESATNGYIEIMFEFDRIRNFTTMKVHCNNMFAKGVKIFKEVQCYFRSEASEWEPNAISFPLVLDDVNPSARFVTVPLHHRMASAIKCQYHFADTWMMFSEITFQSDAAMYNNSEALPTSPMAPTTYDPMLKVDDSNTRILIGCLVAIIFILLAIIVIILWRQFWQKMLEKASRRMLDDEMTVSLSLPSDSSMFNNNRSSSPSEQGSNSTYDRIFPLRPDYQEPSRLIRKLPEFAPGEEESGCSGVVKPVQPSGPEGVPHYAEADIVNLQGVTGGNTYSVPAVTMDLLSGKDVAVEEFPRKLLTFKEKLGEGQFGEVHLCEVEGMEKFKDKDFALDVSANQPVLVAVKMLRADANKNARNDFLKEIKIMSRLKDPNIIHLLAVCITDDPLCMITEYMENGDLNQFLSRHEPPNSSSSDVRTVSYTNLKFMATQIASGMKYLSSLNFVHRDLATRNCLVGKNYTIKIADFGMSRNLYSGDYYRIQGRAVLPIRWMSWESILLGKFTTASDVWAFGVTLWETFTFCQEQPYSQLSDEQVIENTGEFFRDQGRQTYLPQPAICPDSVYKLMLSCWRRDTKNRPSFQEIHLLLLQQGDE

[4] = target: T2, panel of more than 300 wild-type and mutant kinases (313 kinase panel) (Homo sapiens, UniProt P51955); assay: as above; settings: kinase NEK2; 1 μM
T2 sequence (P51955 1-445): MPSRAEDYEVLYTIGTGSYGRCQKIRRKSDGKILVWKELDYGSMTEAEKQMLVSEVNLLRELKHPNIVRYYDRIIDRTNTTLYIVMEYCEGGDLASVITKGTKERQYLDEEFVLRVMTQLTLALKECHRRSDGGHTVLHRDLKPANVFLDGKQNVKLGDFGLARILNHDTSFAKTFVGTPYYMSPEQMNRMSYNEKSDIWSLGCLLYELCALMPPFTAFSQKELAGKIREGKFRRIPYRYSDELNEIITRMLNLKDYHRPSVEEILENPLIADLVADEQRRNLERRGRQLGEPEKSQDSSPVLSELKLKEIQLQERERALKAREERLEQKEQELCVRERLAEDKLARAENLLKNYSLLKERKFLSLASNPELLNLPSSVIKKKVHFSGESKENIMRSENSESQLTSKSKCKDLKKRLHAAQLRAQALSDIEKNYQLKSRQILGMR

[5] = system: forty-four human cancer cell lines; assay: Cell proliferation assay (ATPlite, 72 hours) in the 44 cell line Oncolines panel; type: cell-based; settings: Homo sapiens
[6] = 4-4 cell, read-out: cell panel IC50, J82
[7] = 4-4 cell, read-out: cell panel IC50, PA-1
[8] = 4-4 cell, read-out: cell panel IC50, SJCRH30
[9] = 4-4 cell, read-out: cell panel IC50, SR
[10] = 769-P, read-out: cell panel IC50, 769-P
[11] = 786-0, read-out: cell panel IC50, 786-0
[12] = A 172, read-out: cell panel IC50, A-172
[13] = A204, read-out: cell panel IC50, A-204
[14] = A498, read-out: cell panel IC50, A-498
[15] = A549, read-out: cell panel IC50, A-549
[16] = A-375, read-out: cell panel IC50, A375
[17] = A-427, read-out: cell panel IC50, A-427
[18] = ACHN, read-out: cell panel IC50, ACHN
[19] = AN3-CA, read-out: cell panel IC50, AN3 CA
[20] = AU565, read-out: cell panel IC50, AU-565
[21] = BT-20, read-out: cell panel IC50, BT-20
[22] = BT-549, read-out: cell panel IC50, BT-549
[23] = BXPC-3, read-out: cell panel IC50, BxPC-3
[24] = C-33-A, read-out: cell panel IC50, C-33 A
[25] = CAL-27, read-out: cell panel IC50, CAL 27
[26] = CCRF-CEM, read-out: cell panel IC50, CCRF-CEM
[27] = DLD-1, read-out: cell panel IC50, DLD-1
[28] = FaDu, read-out: cell panel IC50, FaDu
[29] = HCT-15, read-out: cell panel IC50, HCT-15
[30] = HCT-116, read-out: cell panel IC50, HCT-116
[31] = Hs-578T, read-out: cell panel IC50, Hs 578T
[32] = Jurkat E6.1, read-out: cell panel IC50, Jurkat E6.1
[33] = K562, read-out: cell panel IC50, K-562
[34] = LS174T, read-out: cell panel IC50, LS 174T
[35] = LoVo, read-out: cell panel IC50, LoVo
[36] = MG-63, read-out: cell panel IC50, MG-63
[37] = MOLT-4, read-out: cell panel IC50, MOLT-4
[38] = MeWo, read-out: cell panel IC50, MeWo
[39] = NCI-H82, read-out: cell panel IC50, NCI-H82
[40] = NCI-H460, read-out: cell panel IC50, NCI-H460
[41] = OVCAR-3, read-out: cell panel IC50, OVCAR-3
[42] = RPMI-7951, read-out: cell panel IC50, RPMI-7951
[43] = SHP77, read-out: cell panel IC50, SHP-77
[44] = SK-N-AS, read-out: cell panel IC50, SK-N-AS
[45] = SW48, read-out: cell panel IC50, SW48
[46] = SW480, read-out: cell panel IC50, SW480
[47] = SW-620, read-out: cell panel IC50, SW620
[48] = U2OS, read-out: cell panel IC50, U-2 OS
[49] = U-87 MG, 72 h, read-out: IC50 in cell proliferation assay (table S5 cellpanel data)

## CS(=O)(=O)CCNCc1ccc(-c2ccc3ncnc(Nc4ccc(OCc5cccc(F)c5)c(Cl)c4)c3c2)o1 [lapatinib]
[1]; 1 µM
  %-inhibition of NEK7: -0.744%
[2]
  %-inhibition of PDGFRβ: 2.84%
[3]
  %-inhibition of DDR2: 83%
[4]
  %-inhibition of NEK2: -3.7%
[5]; [6]
  pIC50: 4.81
[5]; [7]
  pIC50: 4.91
[5]; [8]
  pIC50: 4.91
[5]; [9]
  pIC50: 5.12
[5]; [10]
  pIC50: 5.06
[5]; [11]
  pIC50: 4.94
[5]; [12]
  pIC50: 4.86
[5]; [13]
  pIC50: 4.98
[5]; [14]
  pIC50: 5.00
[5]; [15]
  pIC50: 4.81
[5]; [16]
  pIC50: 4.83
[5]; [17]
  pIC50: 4.90
[5]; [18]
  pIC50: 5.24
[5]; [19]
  pIC50: 4.92
[5]; [20]
  pIC50: 6.86
[5]; [21]
  pIC50: 4.76
[5]; [22]
  pIC50: 4.78
[5]; [23]
  pIC50: 5.18
[5]; [24]
  pIC50: 6.35
[5]; [25]
  pIC50: 5.59
[5]; [26]
  pIC50: 5.00
[5]; [27]
  pIC50: 4.89
[5]; [28]
  pIC50: 6.04
[5]; [29]
  pIC50: 5.05
[5]; [30]
  pIC50: 4.86
[5]; [31]
  pIC50: 4.83
[5]; [32]
  pIC50: 5.15
[5]; [33]
  pIC50: 4.85
[5]; [34]
  pIC50: 5.15
[5]; [35]
  pIC50: 5.04
[5]; [36]
  pIC50: 4.91
[5]; [37]
  pIC50: 5.06
[5]; [38]
  pIC50: 4.84
[5]; [39]
  pIC50: 4.93
[5]; [40]
  pIC50: 4.79
[5]; [41]
  pIC50: < 4.50
[5]; [42]
  pIC50: 4.86
[5]; [43]
  pIC50: 4.85
[5]; [44]
  pIC50: 4.89
[5]; [45]
  pIC50: 4.64
[5]; [46]
  pIC50: 4.88
[5]; [47]
  pIC50: 4.68
[5]; [48]
  pIC50: 4.89
[5]; [49]
  pIC50: 4.98

## Cc1ccc(Nc2nccc(N(C)c3ccc4c(C)n(C)nc4c3)n2)cc1S(N)(=O)=O [pazopanib]
[1]; kinase NEK7, 1 μM
  %-inhibition of NEK7: -4.75%
[2]
  %-inhibition of PDGFRβ: 96%
[3]
  %-inhibition of DDR2: 96%
[4]
  %-inhibition of NEK2: 27%
[5]; [6]
  pIC50: 4.54
[5]; [7]
  pIC50: 4.97
[5]; [8]
  pIC50: 5.02
[5]; [9]
  pIC50: 5.21
[5]; [10]
  pIC50: 5.22
[5]; [11]
  pIC50: 5.09
[5]; [12]
  pIC50: 4.88
[5]; [13]
  pIC50: 6.64
[5]; [14]
  pIC50: 4.96
[5]; [15]
  pIC50: 4.83
[5]; [16]
  pIC50: 4.78
[5]; [17]
  pIC50: 5.14
[5]; [18]
  pIC50: 5.03
[5]; [19]
  pIC50: 6.54
[5]; [20]
  pIC50: 5.18
[5]; [21]
  pIC50: 4.72
[5]; [22]
  pIC50: 5.10
[5]; [23]
  pIC50: 5.17
[5]; [24]
  pIC50: 5.10
[5]; [25]
  pIC50: 4.73
[5]; [26]
  pIC50: 4.96
[5]; [27]
  pIC50: 4.98
[5]; [28]
  pIC50: 4.94
[5]; [29]
  pIC50: 4.93
[5]; [30]
  pIC50: 4.76
[5]; [31]
  pIC50: 4.94
[5]; [32]
  pIC50: 5.34
[5]; [33]
  pIC50: 4.90
[5]; [34]
  pIC50: 5.00
[5]; [35]
  pIC50: 5.13
[5]; [36]
  pIC50: 4.87
[5]; [37]
  pIC50: 5.16
[5]; [38]
  pIC50: 4.60
[5]; [39]
  pIC50: 5.08
[5]; [40]
  pIC50: 5.79
[5]; [41]
  pIC50: < 4.50
[5]; [42]
  pIC50: 4.82
[5]; [43]
  pIC50: 4.90
[5]; [44]
  pIC50: 4.71
[5]; [45]
  pIC50: 4.88
[5]; [46]
  pIC50: 4.99
[5]; [47]
  pIC50: 5.04
[5]; [48]
  pIC50: 4.85
[5]; [49]
  pIC50: 4.62
